# Biological target: human Nav1.7 (Homo sapiens (Human), UniProt Q15858)
# Assay: FLIPR or FLIPR TETRA sodium dye assay with KCl and test article pre-incubation
# Type: cell-based
# Details: read-out: Nav1.7 IC50 (μM) ± SEM
# human Nav1.7, sequence (Q15858 other isoform, or with tags, fused parts or gaps): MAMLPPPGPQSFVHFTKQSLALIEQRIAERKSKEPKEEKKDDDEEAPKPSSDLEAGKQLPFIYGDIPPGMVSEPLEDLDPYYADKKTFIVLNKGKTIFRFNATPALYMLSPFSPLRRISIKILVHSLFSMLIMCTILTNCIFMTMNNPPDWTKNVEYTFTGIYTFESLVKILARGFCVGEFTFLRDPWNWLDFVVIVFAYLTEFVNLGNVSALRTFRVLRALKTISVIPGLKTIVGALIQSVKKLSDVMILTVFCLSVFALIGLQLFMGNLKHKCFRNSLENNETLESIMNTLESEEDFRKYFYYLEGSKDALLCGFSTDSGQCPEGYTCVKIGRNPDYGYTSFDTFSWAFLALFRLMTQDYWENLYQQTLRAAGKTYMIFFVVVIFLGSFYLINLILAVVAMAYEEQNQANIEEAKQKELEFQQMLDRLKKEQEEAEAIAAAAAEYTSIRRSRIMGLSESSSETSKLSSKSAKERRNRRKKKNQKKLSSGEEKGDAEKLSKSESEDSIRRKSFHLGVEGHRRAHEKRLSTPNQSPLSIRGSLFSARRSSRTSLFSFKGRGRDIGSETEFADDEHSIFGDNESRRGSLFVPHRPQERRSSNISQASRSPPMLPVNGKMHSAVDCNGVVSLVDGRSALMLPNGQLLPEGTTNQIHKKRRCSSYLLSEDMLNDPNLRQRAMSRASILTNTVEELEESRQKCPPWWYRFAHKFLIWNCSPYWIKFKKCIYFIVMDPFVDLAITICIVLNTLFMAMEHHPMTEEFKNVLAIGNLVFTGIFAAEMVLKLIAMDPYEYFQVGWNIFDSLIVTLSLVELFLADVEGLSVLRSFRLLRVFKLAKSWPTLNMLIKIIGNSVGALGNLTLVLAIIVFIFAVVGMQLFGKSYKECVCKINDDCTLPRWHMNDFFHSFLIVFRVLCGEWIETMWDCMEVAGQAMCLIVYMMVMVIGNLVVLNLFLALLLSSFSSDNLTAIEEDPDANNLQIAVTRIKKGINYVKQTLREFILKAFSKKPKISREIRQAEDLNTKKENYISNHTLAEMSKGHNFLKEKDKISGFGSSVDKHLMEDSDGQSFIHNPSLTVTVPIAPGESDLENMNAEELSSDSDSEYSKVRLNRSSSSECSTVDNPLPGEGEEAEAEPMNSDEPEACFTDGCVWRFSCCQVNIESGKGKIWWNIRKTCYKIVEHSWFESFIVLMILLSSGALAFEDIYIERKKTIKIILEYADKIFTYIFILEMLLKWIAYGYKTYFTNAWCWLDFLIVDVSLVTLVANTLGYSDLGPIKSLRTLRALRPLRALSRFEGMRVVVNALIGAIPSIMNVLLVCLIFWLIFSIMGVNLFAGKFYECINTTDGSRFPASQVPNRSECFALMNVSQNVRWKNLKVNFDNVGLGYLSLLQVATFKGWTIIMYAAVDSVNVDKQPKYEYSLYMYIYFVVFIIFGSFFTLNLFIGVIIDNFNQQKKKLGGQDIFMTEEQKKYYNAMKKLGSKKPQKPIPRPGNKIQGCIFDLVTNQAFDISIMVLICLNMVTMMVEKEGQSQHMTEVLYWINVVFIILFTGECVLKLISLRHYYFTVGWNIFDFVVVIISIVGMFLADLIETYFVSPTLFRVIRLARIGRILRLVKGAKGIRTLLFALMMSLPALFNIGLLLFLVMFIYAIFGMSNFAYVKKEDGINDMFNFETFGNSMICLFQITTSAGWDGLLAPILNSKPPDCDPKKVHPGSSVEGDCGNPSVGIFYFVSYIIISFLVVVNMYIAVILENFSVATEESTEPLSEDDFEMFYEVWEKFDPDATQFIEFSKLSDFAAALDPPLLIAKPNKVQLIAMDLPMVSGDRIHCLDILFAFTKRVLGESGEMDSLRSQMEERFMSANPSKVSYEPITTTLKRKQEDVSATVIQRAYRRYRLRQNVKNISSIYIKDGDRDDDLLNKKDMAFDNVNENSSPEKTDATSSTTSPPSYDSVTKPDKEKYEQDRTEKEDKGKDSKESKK
row,SMILES,IC50 [µM]
1,OC[C@H](O)c1cc(NCCN2CCOCC2)cc(-c2ccc(Oc3ccc(F)cc3)cc2)n1 [compound 111],0.71 ± 0.13
2,"O=C1NCCN1CCNCc1cccc(-c2ccc(Oc3ncc(C(F)(F)F)cc3Cl)cc2)n1 [compound 66, 1-(2-(((6-(4-((3-chloro-5-(trifluoromethyl)pyridin-2-yl)oxy)phenyl)pyridin-2-yl)methyl)amino)ethyl) imidazolidin-2-one]",0.13 ± 0.03
3,"N#Cc1cc(Oc2ccc(-c3cccc([C@@H](O)CO)n3)cc2)ccc1C(F)(F)F [compound 14, (R)-5-(4-(6-(1,2-dihydroxyethyl)pyridin-2-yl)phenoxy)-2-(trifluoromethyl) benzonitrile]",1.3 ± 0.3
4,"NC(=O)c1cc(NCc2ccncc2)cc(-c2ccc(Oc3ccc(F)cc3)cc2)n1 [compound 46, 6-(4-(4-fluorophenoxy)phenyl)-4-((pyridin-4-ylmethyl)amino) picolinamide]",0.48 ± 0.07
5,"N#Cc1cc(Oc2ccc(-c3cccc(C(O)CO)n3)cc2)ccc1C(F)(F)F (stereo not shown) [compound 12, 5-(4-(6-(1,2-dihydroxyethyl)pyridin-2-yl)phenoxy)-2-(trifluoromethyl) benzonitrile]",0.89 ± 0.02
6,"N#Cc1ccc(Oc2ccc(-c3cc([C@@H](O)CO)cc(C(N)=O)n3)cc2)cc1C(F)(F)F [compound 127, (R)-6-(4-(4-cyano-3-(trifluoromethyl)phenoxy)phenyl)-4-(1,2-dihydroxyethyl) picolinamide]",1.13 ± 0.11
7,"N#Cc1cc(NCCCn2ccnc2)cc(-c2ccc(Oc3ccc(F)cc3)cc2)n1 [compound 110, 4-((3-(1H-imidazol)-1-yl)propyl)amino)-6-(4-(4-fluorophenoxy) phenylpicolinonitrile]",0.62 ± 0.08
8,"N#Cc1ccc(Oc2ccc(-c3cccc([C@H](O)CO)n3)cc2)cc1 [compound 6, (S)-4-(4-(6-(1,2-dihydroxyethyl)pyridin-2-yl)phenoxy)benzonitrile]",0.27 ± 0.05
9,"OCC(O)c1cccc(-c2ccc(Oc3ccc(C(F)(F)F)cc3)cc2)n1 (stereo not shown) [compound 3, 1-(6-(4-(4-(trifluoromethyl)phenoxy)phenyl)pyridin-2-yl)ethane-1,2-diol]",0.07 ± 0.01
10,"N#Cc1ccc(Oc2ccc(-c3cc([C@H](O)CO)cc(C(N)=O)n3)cc2)c(C(F)(F)F)c1 [compound 35, (S)-6-(4-(4-cyano-2-(trifluoromethyl)phenoxy)phenyl)-4-(1,2-dihydroxyethyl) picolinamide]",0.4 ± 0.07
11,"OC[C@@H](O)c1cccc(-c2ccc(Oc3ccc(C(F)(F)F)cc3)cc2)n1 [compound 4, (S)-1-(6-(4-(4-(trifluoromethyl)phenoxy)phenyl)pyridin-2-yl)ethane-1,2-diol]",0.12 ± 0.02
12,"N#Cc1ccc(Oc2ccc(-c3cccc([C@H](O)CO)n3)cc2)c(C(F)(F)F)c1 [compound 22, (S)-4-(4-(6-(1,2-dihydroxyethyl)pyridin-2-yl)phenoxy)-3-(trifluoromethyl) benzonitrile]",3.33 ± 0.2
13,"N#CCCN(c1ccccc1)c1cc(C(=O)O)nc(-c2ccc(Oc3ccc(F)cc3)cc2)c1 [compound 118, 4-((2-cyanoethyl) (phenyl)amino)-6-(4-(4fluorophenoxy)phenyl)picolinic acid]",2.5 ± 0.3

# Same assay, conditions: recombinant human Nav1.7 in HEK293 cells; CoroNa Green sodium dye; veratridine + scorpion venom; read-out: Nav1.7 IC50 (μM) ± SEM
row,SMILES,IC50 [µM]
1,"NC(=O)c1cc(NC(=O)NCC(=O)O)cc(-c2ccc(Oc3ccc(F)cc3)cc2)n1 [compound 87, 2-(3-(2-carbamoyl-6-(4-(4-fluorophenoxy)phenyl)pyridin-4-yl)ureido)acetic acid]",> 20
2,"NC(=O)c1cc(-c2ccc(Oc3ccc(F)cc3)cc2)cc([C@H](O)CO)n1 [compound 95, (S)-6-(1,2-dihydroxyethyl)-4-(4-(4-fluorophenoxy)phenyl)picolinamide]",0.17 ± 0.08
3,"N#Cc1cc(Oc2ccc(-c3cc([C@@H](O)CO)cc(C(N)=O)n3)cc2)ccc1C(F)(F)F [compound 34, (R)-6-(4-(3-cyano-4-(trifluoromethyl)phenoxy)phenyl)-4-(1,2-dihydroxyethyl) picolinamide]",0.38 ± 0.08
4,"NC(=O)c1cc(NCCCn2ccnc2)cc(-c2ccc(Oc3ccc(F)cc3)cc2)n1 [compound 54, 4-((3-(1H-imidazol-1-yl)propyl)amino)-6-(4-(4-fluorophenoxy)phenyl) picolinamide]",0.22 ± 0.06
5,"CN(c1ccccc1)c1cc(C(N)=O)nc(-c2ccc(Oc3ccc(C(F)(F)F)cc3)cc2)c1 [compound 149, 4-(Methyl-phenyl-amino)-6-[4-(4-trifluoromethyl-phenoxy)phenyl]-pyridine-2-carboxylic acid amide]",10 to 20
6,"C[C@H](Nc1cc(C#N)nc(-c2ccc(Oc3ccc(F)cc3)cc2)c1)C(N)=O [compound 165, (S)-2-((2-cyano-6-(4-(4-fluorophenoxy)phenyl)pyridin-4-yl)amino)propanamide]",1.97 ± 0.49
7,"NC(=O)c1cc(N(CCc2nn[nH]n2)c2ccccc2)cc(-c2ccc(Oc3ccc(F)cc3)cc2)n1 [compound 150, 6-[4-(4-Fluoro-phenoxy)-phenyl]-4-{phenyl-[2-(2H-tetrazol-5-yl)-ethyl]-amino}-pyridine-2-carboxylic acid amide]",0.46 ± 0.04
8,"CC(C)NC(=O)N1CCN(c2cc(C#N)nc(-c3ccc(Oc4ccc(F)cc4)cc3)c2)CC1 [compound 82, 4-(2-cyano-6-(4-(4-fluorophenoxy)phenyl)pyridin-4-yl)-N-isopropylpiperazine-1-carboxamide]",1.94 ± 0.21
9,"O=C(NCCN1CCCCC1)c1cc(CO)cc(-c2ccc(Oc3ccc(F)cc3)cc2)n1 [compound 79, 6-(4-(4-fluorophenoxy)phenyl)-4-(hydroxymethyl)-N-(2-(piperidin-1-yl)ethyl)picolinamide]",0.41 ± 0.03
10,"NC(=O)c1cc(-c2ccc(Oc3ccc(F)cc3)cc2)nc([C@@H](O)CO)c1 [compound 89, (R)-2-(1,2-dihydroxyethyl)-6-(4-(4-fluorophenoxy)phenyl) isonicotinamide]",7.13 ± 0.5
11,"NC(=O)c1cc(N2CCNCC2)cc(-c2ccc(Oc3ccc(F)cc3)cc2)n1 [compound 55, 6-(4-(4-fluorophenoxy)phenyl)-4-(piperazin-1-yl) picolinamide]",0.23 ± 0.06
12,"N#Cc1ccc(Oc2ccc(-c3cc([C@@H](O)CO)cc(C(N)=O)n3)cc2)cc1 [compound 38, (R)-6-(4-(4-cyanophenoxy)phenyl)-4-(1,2-dihydroxyethyl) picolinamide]",0.35 ± 0.07
13,"NC(=O)c1cc(CN2CCN(CC(=O)O)CC2)cc(-c2ccc(Oc3ccc(F)cc3)cc2)n1 [compound 104, 2-(4-((2-carbamoyl-6-(4-(4-fluorophenoxy)phenyl)pyridine-4-yl)methyl)piperazin-1-yl) acetic acid]",2.7 ± 0.26
14,"NC(=O)c1cc(C[C@H](O)CO)cc(-c2ccc(Oc3ccc(F)cc3)cc2)n1 [compound 135, (S)-4-(2,3-dihydroxypropyl)-6-(4-(4-fluorophenoxy)phenyl)picolinamide]",7.26 ± 0.34
15,"N#Cc1cc(C(F)(F)F)ccc1Oc1ccc(-c2cccc(C(O)CO)n2)cc1 (stereo not shown) [compound 10, 2-(4-(6-(1,2-dihydroxyethyl)pyridin-2-yl)phenoxy)-5-(trifluoromethyl) benzonitrile]",0.52 ± 0.11
16,"NC(=O)c1cc(-c2ccc(Oc3ccc(F)cc3)cc2)cc([C@@H](O)CO)n1 [compound 96, (R)-6-(1,2-dihydroxyethyl)-4-(4-(4-fluorophenoxy)phenyl)picolinamide]",0.12 ± 0.03
17,"NC(=O)c1cc([C@H](O)CO)cc(-c2ccc(-c3ccc(F)cc3)cc2)n1 [compound 154, 4-((S)-1,2-Dihydroxy-ethyl)-6-(4′-fluoro-biphenyl-4-yl)pyridine-2-carboxylic acid amide]",1.12 ± 0.07
18,"NC(=O)c1cc([C@H](O)CO)cc(-c2ccc(Oc3ccc(Cl)cc3F)cc2)n1 [compound 140, (S)-6-(4-(4-chloro-2-fluorophenoxy)phenyl)-4-(1,2-dihydroxyethyl) picolinamide]",0.07 ± 0.01
19,"NC(=O)c1cc(-c2ccc(Oc3ccc(F)cc3)cc2)cc(N(CC(=O)O)c2ccccc2)n1 [compound 143, ({6-Carbamoyl-4-[4-(4-fluoro-phenoxy)-phenyl]-pyridin-2-yl}phenyl-amino)-acetic acid]",> 20
20,"O=S(=O)(Nc1ccc(-c2cccc([C@H](O)CO)n2)cc1)c1ccc(F)cc1 [compound 137, (S)-N-(4-(6-(1,2-dihydroxyethyl)pyridin-2-yl)phenyl)-4-fluorobenzene sulfonamide]",> 20
21,"NC(=O)c1cc(NC(CO)CO)cc(-c2ccc(Oc3ccc(F)cc3)cc2)n1 [compound 133, 4-((1,3-dihydroxypropan-2-yl)amino)-6-(4-(4-fluorophenoxy)phenyl) picolinamide]",3.08 ± 0.59
22,"O=C(O)c1cc(-c2ccc(Oc3ccc(F)cc3)cc2)cc(N(CCc2nn[nH]n2)c2ccccc2)n1 [compound 153, 4-[4-(4-Fluoro-phenoxy)-phenyl]-6-{phenyl-[2-(2H-tetrazol-5-yl)ethyl]-amino}-pyridine-2-carboxylic acid]",2.13 ± 0.55
23,"NC(=O)c1cc(C(=O)NCCN2CCCCC2)nc(-c2ccc(Oc3ccc(F)cc3)cc2)c1 [compound 81, 6-(4-(4-fluorophenoxy)phenyl)-N2-(2-(piperidin-1-yl)ethyl)pyridine-2,4-dicarboxamide]",1.46 ± 0.43
24,"NC(=O)c1cc([C@@H](O)CO)cc(-c2ccc(Oc3ccc(Cl)cc3F)cc2)n1 [compound 141, (R)-6-(4-(4-chloro-2-fluorophenoxy)phenyl)-4-(1,2-dihydroxyethyl) picolinamide]",0.07 ± 0.01
25,"OCC(O)c1cccc(-c2ccc(Oc3ncccc3C(F)(F)F)cc2)n1 (stereo not shown) [compound 29, 1-(6-(4-((3-(trifluoromethyl)pyridin-2-yl)oxy)phenyl)pyridin-2-yl) ethane-1,2-diol]",2.65 ± 0.37
26,"Cc1ccc(Oc2ccc(-c3cccc(C(O)CO)n3)cc2)cn1 (stereo not shown) [compound 27, 1-(6-(4-((6-methylpyridin-3-yl)oxy)phenyl)pyridin-2-yl)ethane-1,2-diol]",> 20
27,"CN(c1ccc(C(=O)O)cc1)c1cc(-c2ccc(Oc3ccc(F)cc3)cc2)cc(C(N)=O)n1 [compound 116, 4-((6-carbamoyl-4-(4-(4-fluorophenoxy)phenyl)pyridin-2-yl) (methyl)amino)benzoic acid]",2.71 ± 0.73
